Results from paper PMC10281321, “Discovery of an effective anti-inflammatory agent for inhibiting the activation of NF-κB” (Journal of Enzyme Inhibition and Medicinal Chemistry, 2023).
“Also recorded” adds a separate entry of the source.

Key:
[1] = test system: LPS-stimulated RAW264.7 cells; experiment: NO release inhibition in LPS-stimulated RAW264.7 cells (Griess reagent); format: cell-based
Method: After incubated for 24 hours, cells were treated with tested compounds for different
concentrations(3.125,6.25,12.5,25 and 50μM) for 1 h, and then treated with 1 μg/mL LPS
for further 24 h. The supernatants were collected and NO level was measured using
Griess reagent (Beyotime, China). […]

[2] = Cytotoxicity by MTT assay; format: cell-based
RAW264.7 cells = experiment: Reactive oxygen species (ROS) assay in LPS-stimulated RAW264.7 cells; format: cell-based; details: 1 μg/mL LPS 24 h, DCFH-DA
Method: […]
(§1) 4.5. NF-κB transcriptional activity assay
(§2) HEK293T cells were seeded into 96 well plate at a density of 1×10^5 cells per well. After incubated for 24 hours, cells were transfected with NF-κB reporter plasmid at 100 ng/well using lip2000.Six hours later, the medium was replaced by fresh medium containing tested compounds with different concentrations. Then incubated for another hour, TNF-α was added for a final concentration at 10 ng/mL.12 hours later, the cell lysate was collected and the RLU was measured by microplate reader.
4.6. […]
(§3) RAW264.7 cells were seeded into 6 well plate at a density of 1.5×10^6 cells per well. After incubated for 24 hours, cells were treated with different concentrations of compound and stimulated by 1 μg/mL LPS after one hour.24 hours later, the supernatant was collected and measured by ELISA kits(MultiScience). […]
stimulated by 1 μg/mL LPS after one hour.24 hours later, cells were collected and washed by PBS for three times. […] Cell samples were incubated for 20 min at 37°C,and then the fluorescence intensity measured by microplate reader using Ex λ 488 nm and Em λ 525 […]

iNOS and COX-2 = experiment: Western blot of iNOS and COX-2 expression in LPS-stimulated RAW264.7 cells; format: cell-based; details: compound 1 h then LPS 24 h, WB
Method: RAW264.7 cells were seeded into 6 well plate at a density of 1.5×10^6 per well and incubated at 37 C in 5% CO2 about 24 h. RAW264.7 cells were pretreated with […]
were lysed in 300 μL RIPA cell lysis buffer and the samples were analyzed by WB. […] All antibodies were purchased from ZENBIO. […]

[3] = test system: RELA (p65) and NFKB1 (p50) subunits of NF-κB; experiment: Western blot of TNFα-induced nuclear translocation of p65 and p50 in HEK293T cells; format: cell-based; details: compound 4, 2, 1 μM 1 h, then TNF-α 12 h, nuclear protein WB
Method: HEK293T cells were seeded into 6 well plate at a density of 1.5×10^6 cells per well and incubated at 37°C in 5% CO2 about 24 h. HEK293T cells were pretreated with compound (4, 2, 1 μM) for 1 h, then treated with TNF-α (1 μg/mL) for 12 h. The nuclear protein was extracted by Nuclear protein extraction kit(Beyotime).The samples were analyzed by WB.
All antibodies were purchased from ZENBIO. […]

MAPKs (P38, JNK and ERK) = experiment: Western blot of LPS-regulated MAPK signalling activation in RAW264.7 cells; format: cell-based; details: LPS stimulated, WB
Method: (§4) RAW264.7 cells were seeded into 6 well plate at a density of 1.5×10^6 per well and incubated at 37 C in 5% CO2 about 24 h. RAW264.7 cells were pretreated with compound (4, 2, 1 μM) for 1 h, then treated with LPS (1 μg/mL) for 30 min. The cells were lysed in 300 μL RIPA cell lysis buffer and the samples were analyzed by WB. […] All antibodies were purchased from ZENBIO. […]

TNF-α and IL-6 = TNF-α and IL-6 assay (ELISA) in LPS-stimulated RAW264.7 cells; format: cell-based; details: 1 μg/mL LPS 24 h, supernatant ELISA
Method: 4.6. TNF-α and IL-6 assay
as §3

NF-κB = NF-κB transcriptional activity dual-luciferase reporter assay, TNF-α stimulated; format: cell-based; details: HEK293T cells transfected with NF-κB reporter plasmid, stimulated by TNF-α
Method: as §1
as §2, with “reader. […]” for “reader.”

NF-κB p65 and IκBα = experiment: Western blot of LPS-induced phosphorylation of p65 and IκBα in RAW264.7 cells; format: cell-based; details: compound 4, 2, 1 μM 1 h, then LPS 1 μg/mL 30 min, WB
Method: as §4

[4] = test system: LPS-induced inflammation model of mice; experiment: LPS-induced inflammation model in vivo; design: species or system C57BL/6 mice
Method: All antibodies were purchased from ZENBIO.
4.9 Establishment of LPS-induced inflammation models in vivo
The 30 male C57BL/6 mice weighing 18-22 g were purchased from Animal Department of Anhui Medical University. After adaptive feeding for a week, mice were randomly divided into five groups on average, including the control group, LPS group, compound 51 (5,10,20 mg/kg) +LPS group. Before received 20 mg/kg LPS by intraperitoneal injection, mice were gavaged for three days of compound 51. 6 hours after received LPS, the blood and tissues were taken from mice. The levels of IL-6, TNF-α, SOD and MDA

[5] = compound 51 5,10,20 mg/kg gavaged, LPS i.p.
[6] = compound 51 5,10,20 mg/kg gavaged, LPS i.p., ELISA

Q: Which results are given for `CC(=O)Nc1ccc(NC(=O)c2cc(-c3ccc(N)cc3Cl)cnc2N)cc1` [Compound 51]?
A: IC50 ([1]; Mus musculus, LPS-stimulated RAW264.7 cells, Griess Reagent): 3.1 ± 1.1 µM; anti-inflammatory activity (in words) ([1]; SAR summary covering NO release and NF-κB reporter inhibition): superior anti-inflammatory activity; IC50 [2]: > 50 µM; cytotoxicity (in words) [2]: did not show obvious cytotoxicity; level of ROS (RAW264.7 cells): decrease the level of ROS obviously; expression of COX-2 (iNOS and COX-2): decreased significantly; expression of iNOS (iNOS and COX-2): decreased significantly; TNFα-induced nuclear translocation of p50 [3]: inhibited by compound in a dose dependent manner; TNFα-induced nuclear translocation of p65 [3]: inhibited by compound in a dose dependent manner; phosphorylation of ERK (MAPKs (P38, JNK and ERK)): significantly decreased; phosphorylation of JNK (MAPKs (P38, JNK and ERK)): significantly decreased; phosphorylation of P38 (MAPKs (P38, JNK and ERK)): significantly decreased; level of IL-6 (TNF-α and IL-6): decreased the levels of TNF-α and IL-6 significantly in a dose dependent manner; level of TNF-α (TNF-α and IL-6): decreased the levels of TNF-α and IL-6 significantly in a dose dependent manner; IC50 (NF-κB): 0.172 ± 0.0114 µM; IC50 (NF-κB; Homo sapiens, HEK-293T): 0.173 µM; LPS-induced phosphorylation of IκBα (NF-κB p65 and IκBα): suppressed significantly in a dose dependent manner; LPS-induced phosphorylation of p65 (NF-κB p65 and IκBα): suppressed significantly in a dose dependent manner; activation of NF-κB in splenic organ ([4]; LPS i.p., spleen WB): suppressed the activation of NF-κB in splenic organ; injury of spleen (HE staining) ([4]; compound 51 5,10,20 mg/kg gavaged three days before LPS i.p.): alleviated these injury in a dose-dependent manner; gastric distention and splenomegaly ([4]; compound 51 5,10,20 mg/kg gavaged three days before LPS i.p., 6 hours after LPS): these symptoms were relieved; MDA activity in blood [4, 5]: reversed their activity; also recorded: decreased MDA activity; SOD activity in blood [4, 5]: reversed their activity; also recorded: increased SOD activity; IL-6 level in blood [4, 6]: decreased obviously; TNF-α level in blood [4, 6]: decreased obviously
